Reference: ChEMBL document CHEMBL1145487, “Evidence and possible consequences of the phosphorylation of nucleoside reverse transcriptase inhibitors in human red blood cells” (Antimicrob Agents Chemother, 2007)
One block for each molecule: values may come before it.

Legend:
[1] = Drug level in human RBC assessed as concentration of Lamivudine triphosphate per 10^6 cells; assay type: ADME, cell-based; details: erythrocyte
[2] = Drug level in human RBC assessed as concentration of Lamivudine triphosphate per 10^6 cells after 0.3 hrs; assay type: ADME, cell-based; details: erythrocyte
PBMC [3] = assay: Drug level in human PBMC assessed as concentration of Lamivudine triphosphate per 10^6 cells; assay type: ADME, cell-based
PBMC [4] = assay: Drug level in human PBMC assessed as concentration of Lamivudine triphosphate per 10^6 cells after 0.3 hrs; assay type: ADME, cell-based
[5] = Ratio of drug level in human RBC to human PBMC assessed as concentration of Lamivudine triphosphate; assay type: ADME; details: erythrocytes
[6] = Ratio of drug level in human RBC to human PBMC assessed as concentration of Lamivudine triphosphate after 0.3 hrs; assay type: ADME; details: erythrocytes
[7] = Drug level in human RBC assessed as concentration of tenofovir diphosphate per 10^6 cells after 11.9 hrs; assay type: ADME, cell-based; details: erythrocyte
[8] = Drug level in human RBC assessed as concentration of tenofovir diphosphate per 10^6 cells after 13.3 hrs; assay type: ADME, cell-based; details: erythrocyte
[9] = Drug level in human RBC assessed as concentration of tenofovir diphosphate per 10^6 cells after 0.8 hrs; assay type: ADME, cell-based; details: erythrocyte
[10] = Drug level in human RBC assessed as concentration of tenofovir diphosphate per 10^6 cells after 14.3 hrs; assay type: ADME, cell-based; details: erythrocyte
[11] = Drug level in human RBC assessed as concentration of tenofovir diphosphate per 10^6 cells after 13.5 hrs; assay type: ADME, cell-based; details: erythrocyte
PBMC [12] = assay: Drug level in human PBMC assessed as concentration of tenofovir diphosphate per 10^6 cells after 11.9 hrs; assay type: ADME, cell-based
PBMC [13] = assay: Drug level in human PBMC assessed as concentration of tenofovir diphosphate per 10^6 cells after 13.9 hrs; assay type: ADME, cell-based
PBMC [14] = assay: Drug level in human PBMC assessed as concentration of tenofovir diphosphate per 10^6 cells after 0.8 hrs; assay type: ADME, cell-based
PBMC [15] = assay: Drug level in human PBMC assessed as concentration of tenofovir diphosphate per 10^6 cells after 14.3 hrs; assay type: ADME, cell-based
[16] = Ratio of drug level in human RBC to human PBMC assessed as concentration of Lamivudine triphosphate after 0.8 hrs; assay type: ADME; details: erythrocytes
[17] = Ratio of drug level in human RBC to human PBMC assessed as concentration of Lamivudine triphosphate after 14.3 hrs; assay type: ADME; details: erythrocytes
[18] = Ratio of drug level in human RBC to human PBMC assessed as concentration of lamivudin triphosphate after 13.5 hrs; assay type: ADME; details: erythrocytes
PBMC [19] = assay: Drug level in non-lysed human PBMC assessed as concentration of tenofovir diphosphate after 2 hrs; assay type: ADME, cell-based
PBMC [20] = assay: Drug level in non-lysed human PBMC assessed as concentration of tenofovir diphosphate after 9.5 hrs; assay type: ADME, cell-based
PBMC [21] = assay: Drug level in RBC lysed human PBMC assessed as concentration of tenofovir diphosphate after 2 hrs; assay type: ADME, cell-based
PBMC [22] = assay: Drug level in RBC lysed human PBMC assessed as concentration of tenofovir diphosphate after 9.5 hrs; assay type: ADME, cell-based
PBMC [23] = assay: Ratio of drug level in non-lysed human PBMC to RBC lysed human PBMC assessed as concentration of tenofovir diphosphate after 2 hrs; assay type: ADME, cell-based
PBMC [24] = assay: Ratio of drug level in non-lysed human PBMC to RBC lysed human PBMC assessed as concentration of tenofovir diphosphate after 9.5 hrs; assay type: ADME, cell-based
PBMC [25] = assay: Drug level in human PBMC assessed as concentration of tenofovir diphosphate per 10^6 cells after 13.5 hrs; assay type: ADME, cell-based
[26] = Ratio of drug level in human RBC to human PBMC assessed as concentration of Lamivudine triphosphate after 11.9 hrs; assay type: ADME; details: erythrocytes
[27] = Ratio of drug level in human RBC to human PBMC assessed as concentration of Lamivudine triphosphate after 13.3 hrs; assay type: ADME; details: erythrocytes

- Drug uptake [1]: 0.04 pmol
- Drug uptake [2]: 0.09 pmol
- Drug uptake (PBMC [3]): 11.1 pmol
- Drug uptake (PBMC [4]): 10.5 pmol
- Ratio [5]: 0.004
- Ratio [6]: 0.009
SMILES: Nc1ccn([C@@H]2CS[C@H](CO)O2)c(=O)n1 (single isomer, unassigned) [LAMIVUDINE]

SMILES: CC(C)OC(=O)OCOP(=O)(CO[C@H](C)Cn1cnc2c(N)ncnc21)OCOC(=O)OC(C)C.O=C(O)/C=C/C(=O)O [TENOFOVIR DISOPROXIL FUMARATE]
- Drug uptake [7]: 143 fmol
- Drug uptake [8]: 165 fmol
- Drug uptake [9]: 443 fmol
- Drug uptake [10]: 73.3 fmol
- Drug uptake [11]: 245 fmol
- Drug uptake (PBMC [12]): 131 fmol
- Drug uptake (PBMC [13]): 148 fmol
- Drug uptake (PBMC [14]): 226 fmol
- Drug uptake (PBMC [15]): 95.5 fmol
- Ratio [16]: 2
- Ratio [17]: 0.8
- Ratio [18]: 1.2
- Drug uptake (PBMC [19]): 302.6 fmol
- Drug uptake (PBMC [20]): 1287 fmol
- Drug uptake (PBMC [21]): 376.6 fmol
- Drug uptake (PBMC [22]): 182.5 fmol
- Ratio (PBMC [23]): 0.8
- Ratio (PBMC [24]): 7.05
- Drug uptake (PBMC [25]): 202 fmol
- Ratio [26]: 1.1
- Ratio [27]: 1.1
